Measurements taken from US9481636B2, “N-benzylaniline derivative and uses thereof” (Nanjing Medical University, priority 2011, dated 2016).

Each molecule was assayed on OGD-injuried neurons (primary cortical neurons) (assay: Cell viability assay: LDH release by OGD-injured primary cortical neurons). Settings: Mus musculus, Primary cortical neuron; drug concentration 10^−6 M/L; OGD 2 hours, LDH after 8 hours.
Format: cell-based, mice
Protocol: After primary neurons were cultured for 9 days, the medium was replaced by DMEM high glucose medium containing 1% FBS, serum-starved overnight and then washed twice with OGD culture solution. This OGD culture solution contains DMEM medium, 1% FBS, 1% penicillin/streptomycin and B27, and contains no sugar. Then, the primary neurons were incubated with the test drugs for 30 minutes, OGD culture solution was added into an anaerobic tank and oxygen-deprived for 2 hours. The OGD culture solution was discarded, and replaced by oxygen-saturated DMEM medium containing 1% FBS, 1% penicillin/streptomycin and B27. After 8 hours the culture solution was collected to measure LDH level.
After the primary cortical neurons were treated with various processes, neuronal culture solution in six-well plates was pipetted to a 1.5 mL plastic centrifuge tube; cells were washed three times with PBS solution and each well was added PBS 1000 μl. The cells were freezed and thawed repeated for three times, centrifuged at 12000′ g for 5 minutes at 4° C., and the supernatant was removed for use. The activity of LDH enzyme was determined with 50 μl culture solution and 25 μl supernatant using lactate dehydrogenase kit.
Protective Effects of the Objective Compounds Against Primary Cortical Neuronal Injury Cultured In Vitro (See Table 2)

Compared with `CC(=O)Oc1c(Cl)cc(C(F)(F)F)cc1CNc1ccc(C(=O)OC2CC3CCC2(C)C3(C)C)c(O)c1` (centres unmarked) [ZL006-80, bornyl-2-hydroxy-4-(2-acetyloxy-3-chloro-5-trifluoromethylbenzyl)aminobenzoate], `COc1cc(NCc2cc(C(F)(F)F)cc(Cl)c2O)ccc1C(=O)OC1CC2CCC1(C)C2(C)C` (centres unmarked) [ZL006-49, bornyl-2-methoxy-4-(2-hydroxy-3-chloro-5-trifluoromethylbenzyl)aminobenzoate] is lower in inhibition at 1 µM: 41.1% for the first, 32.6% for the second.

Compared with `CCCC(=O)Oc1cc(NCc2cc(F)cc(Cl)c2O)ccc1C(=O)OC1CC2CCC1(C)C2(C)C` (centres unmarked) [ZL006-60, bornyl-2-butyryloxy-4-(2-hydroxy-3-chloro-5-fluorobenzyl)aminobenzoate], `CCCC(=O)Oc1cc(NCc2cc(Br)cc(Cl)c2O)ccc1C(=O)OC1CC2CCC1(C)C2(C)C` (centres unmarked) [ZL006-44, bornyl-2-butyryloxy-4-(2-hydroxy-3-chloro-5-bromobenzyl)aminobenzoate] is lower in inhibition at 1 µM: 68.4% for the first, 43.5% for the second.

First: COc1c(C(=O)OC2CC3CCC2(C)C3(C)C)ccc(NCc2cc(Cl)cc(Cl)c2O)c1Cl (centres unmarked) [ZL006-26, bornyl-2-methoxy-3-chloro-4-(2-hydroxy-3,5-dichlorobenzyl)aminobenzoate]
Second: CCCCOc1cc(NCc2cc(C(F)(F)F)cc(Cl)c2O)ccc1C(=O)OC1CC2CCC1(C)C2(C)C (centres unmarked) [ZL006-50, bornyl-2-n-butoxy-4-(2-hydroxy-3-chloro-5-trifluoromethylbenzyl)aminobenzoate]
The inhibition at 1 µM of the first is lower: 35.4% for the first, 40.2% for the second.

Same assay, conditions: drug concentration 10^−6 M/L; OGD 2 hours, LDH after 8 hours

First: CC(Nc1ccc(C(=O)O)c(O)c1)c1cc(Cl)ccc1O (centres unmarked) [ZL006-14, 2-hydroxy-4-[1-(2-hydroxy-5-chlorophenyl)]-ethylaminobenzoic acid]
Second: CC1(C)C2CCC1(C)C(OC(=O)c1ccc(NCc3cc(Cl)ccc3O)cc1O)C2 (centres unmarked) [ZL006-66, bornyl-2-hydroxy-4-(2-hydroxy-5-chlorobenzyl) aminobenzoate]
The “Inhibition of LDH release (%)” value of the first is higher: 19.9% for the first, 13.3% for the second.

Going from `CN(Cc1cc(Cl)cc(Cl)c1O)c1ccc(C(=O)O)c(O)c1` [ZL006-09, 2-hydroxy-4-[N-(2-hydroxy-3,5-dichlorobenzyl)-N-methyl]aminobenzoic acid] to `CC1(C)C2CCC1(C)C(OC(=O)c1cc(NCc3cc(Cl)cc(Cl)c3O)ccc1O)C2` (centres unmarked) [ZL006-01, bornyl-2-hydroxy-5-(2-hydroxy-3,5-dichlorobenzyl) aminobenzoate], the “Inhibition of LDH release (%)” value falls from 29.5% to 2.3%.

Going from `CN(Cc1cc(F)cc(Cl)c1O)c1ccc(C(=O)OC2CC3CCC2(C)C3(C)C)c(O)c1` (centres unmarked) [ZL006-61, bornyl-2-hydroxy-4-[N-(2-hydroxy-3-chloro-5-fluorobenzyl)-N-methyl]aminobenzoate] to `CN(Cc1cc(Br)cc(Cl)c1O)c1ccc(C(=O)OC2CC3CCC2(C)C3(C)C)c(O)c1` (centres unmarked) [ZL006-45, bornyl-2-hydroxy-4-[N-(2-hydroxy-3-chloro-5-bromobenzyl)-N-methyl]aminobenzoate], the “Inhibition of LDH release (%)” value rises from 56.5% to 67.2%.

Going from `CCCC(=O)Oc1cc(NCc2cc(Cl)cc(Cl)c2O)ccc1C(=O)OC1CC2CCC1(C)C2(C)C` (centres unmarked) [ZL006-23, bornyl-2-butyryloxy-4-(2-hydroxy-3,5-dichlorobenzyl) aminobenzoate] to `CC(=O)Oc1cc(N(Cc2cc(Cl)cc(Cl)c2O)C(C)=O)ccc1C(=O)O` [ZL006-10, 2-acetyloxy-4-[N-(2-hydroxy-3,5-dichlorobenzyl)-N-acetyl]aminobenzoic acid], the “Inhibition of LDH release (%)” value rises from 18.7% to 42.3%.

Compared with `CN(Cc1cc(C(F)(F)F)cc(Cl)c1O)c1ccc(C(=O)OC2CC3CCC2(C)C3(C)C)c(O)c1` (centres unmarked) [ZL006-53, bornyl-2-hydroxy-4-[N-(2-hydroxy-3-chloro-5-trifluoromethylbenzyl)-N-methyl]aminobenzoate], `COC(=O)c1ccc(N(Cc2cc(Cl)cc(Cl)c2O)C(C)=O)cc1OC(C)=O` [ZL006-81, methyl 2-acetyloxy-4-[N-(2-hydroxy-3,5-dichlorobenzyl)-N-acetyl]aminobenzoate] is lower in “Inhibition of LDH release (%)” value: 61.1% for the first, 31.8% for the second.

Going from “methyl 2-acetyloxy-4-[N-(2-hydroxy-3,5-dichlorobenzyl)-N-(bornyl-2-carbonylethyl)]aminobenzoate [ZL006-38]” to “methyl 2-(bornyl-2-carbonylethoxy)-4-[N-(2-hydroxy-3,5-dichlorobenzyl)-N-acetyl]aminobenzoate [ZL006-35]”, the “Inhibition of LDH release (%)” value falls from 41.3% to 12.8%.

Going from `CCCCCC(=O)Oc1cc(NCc2cc(Cl)cc(Cl)c2O)ccc1C(=O)OC1CC2CCC1(C)C2(C)C` (centres unmarked) [ZL006-24, bornyl-2-hexanoyloxy-4-(2-hydroxy-3,5-dichlorobenzyl) aminobenzoate] to `CC(=O)Oc1cc(NCc2cc(Cl)cc(Cl)c2O)c(Cl)cc1C(=O)OC1CC2CCC1(C)C2(C)C` (centres unmarked) [ZL006-18, bornyl-2-acetyloxy-4-(2-hydroxy-3,5-dichlorobenzyl) amino-5-chlorobenzoate], the “Inhibition of LDH release (%)” value rises from 31.2% to 41.5%.

Going from `CC(=O)Oc1cc(NCc2cc(Br)ccc2O)ccc1C(=O)OC1CC2CCC1(C)C2(C)C` (centres unmarked) [ZL006-65, bornyl-2-acetyloxy-4-(2-hydroxy-5-bromobenzyl) aminobenzoate] to `CCCCOc1cc(NCc2cc(Cl)cc(Cl)c2O)ccc1C(=O)OC1CC2CCC1(C)C2(C)C` (centres unmarked) [ZL006-21, bornyl-2-n-butoxy-4-(2-hydroxy-3,5-dichlorobenzyl) aminobenzoate], the “Inhibition of LDH release (%)” value falls from 38.2% to 6.2%.

Going from “bornyl-2-(bornyl-2-carbonylethoxy)-4-[N-(2-hydroxy-3,5-dichlorobenzyl)-N-(bornyl-2-carbonylethyl)]aminobenzoate [ZL006-37]” to `COc1c(Cl)cc(Br)cc1CNc1ccc(C(=O)OC2CC3CCC2(C)C3(C)C)c(O)c1` (centres unmarked) [ZL006-77, bornyl-2-hydroxy-4-(2-methoxy-3-chloro-5-bromobenzyl) aminobenzoate], the “Inhibition of LDH release (%)” value rises from 40.2% to 44.1%.

Compared with `COc1cc(NCc2cc(Br)cc(Cl)c2O)ccc1C(=O)OC1CC2CCC1(C)C2(C)C` (centres unmarked) [ZL006-41, bornyl-2-methoxy-4-(2-hydroxy-3-chloro-5-bromobenzyl) aminobenzoate], `CC(=O)N(Cc1cc(Br)cc(Cl)c1O)c1ccc(C(=O)OC2CC3CCC2(C)C3(C)C)c(O)c1` (centres unmarked) [ZL006-46, bornyl-2-hydroxy-4-[N-(2-hydroxy-3-chloro-5-bromobenzyl)-N-acetyl]aminobenzoate] is higher in “Inhibition of LDH release (%)” value: 45.5% for the first, 72.5% for the second.

Going from `CC(=O)N(Cc1cc(C(F)(F)F)cc(Cl)c1O)c1ccc(C(=O)OC2CC3CCC2(C)C3(C)C)c(O)c1` (centres unmarked) [ZL006-54, bornyl-2-hydroxy-4-[N-(2-hydroxy-3-chloro-5-trifluoromethylbenzyl)-N-acetyl]aminobenzoate] to `CCCCOc1cc(NCc2cc(Br)cc(Cl)c2O)ccc1C(=O)OC1CC2CCC1(C)C2(C)C` (centres unmarked) [ZL006-42, bornyl-2-n-butoxy-4-(2-hydroxy-3-chloro-5-bromobenzyl) aminobenzoate], the “Inhibition of LDH release (%)” value falls from 74.2% to 37.7%.

Compared with “bornyl-2-(2-ethoxy-2-carbonylethoxy)-4-[N-(2-hydroxy-3,5-dichlorobenzyl)-N-(2-ethoxy-2-carbonylethyl)]aminobenzoate [ZL006-36]”, `COc1cc(NCc2cc(F)ccc2O)ccc1C(=O)OC1CC2CCC1(C)C2(C)C` (centres unmarked) [ZL006-70, bornyl-2-methoxy-4-(2-hydroxy-5-fluorobenzyl) aminobenzoate] is lower in “Inhibition of LDH release (%)” value: 10.4% for the first, 2.4% for the second.

Compared with `COc1cc(NCc2cc(Cl)ccc2O)ccc1C(=O)OC1CC2CCC1(C)C2(C)C` (centres unmarked) [ZL006-67, bornyl-2-methoxy-4-(2-hydroxy-5-chlorobenzyl) aminobenzoate], `CCCCCCOc1cc(NCc2cc(Cl)cc(Cl)c2O)ccc1C(=O)OC1CC2CCC1(C)C2(C)C` (centres unmarked) [ZL006-22, bornyl-2-n-hexyloxy-4-(2-hydroxy-3,5-dichlorobenzyl) aminobenzoate] is higher in “Inhibition of LDH release (%)” value: 0.4% for the first, 2.5% for the second.

Compared with `CC(=O)Oc1ccc(NCc2cc(Cl)cc(Cl)c2O)cc1C(=O)OC1CC2CCC1(C)C2(C)C` (centres unmarked) [ZL006-02, bornyl-2-acetyloxy-5-(2-hydroxy-3,5-dichlorobenzyl) aminobenzoate], `CC1(C)C2CCC1(C)C(OC(=O)c1cc(NCc3cc(Br)ccc3O)ccc1O)C2` (centres unmarked) [ZL006-04, bornyl-2-hydroxy-5-(2-hydroxy-5-bromobenzyl) aminobenzoate] is higher in “Inhibition of LDH release (%)” value: 21.4% for the first, 26.9% for the second.

Going from `COc1c(Cl)cc(Cl)cc1CNc1ccc(C(=O)OC2CC3CCC2(C)C3(C)C)c(O)c1` (centres unmarked) [ZL006-75, bornyl-2-hydroxy-4-(2-methoxy-3,5-dichlorobenzyl) aminobenzoate] to `CC1(C)C2CCC1(C)C(OC(=O)c1ccc(NCc3cc(F)cc(Cl)c3O)cc1O)C2` (centres unmarked) [ZL006-55, bornyl-2-hydroxy-4-(2-hydroxy-3-chloro-5-fluorobenzyl) aminobenzoate], the “Inhibition of LDH release (%)” value rises from 31.3% to 36.3%.

Compared with `CC(=O)Oc1cc(NCc2cc(Cl)ccc2O)ccc1C(=O)OC1CC2CCC1(C)C2(C)C` (centres unmarked) [ZL006-68, bornyl-2-acetyloxy-4-(2-hydroxy-5-chlorobenzyl) aminobenzoate], `CC(=O)Oc1cc(NCc2cc(F)cc(Cl)c2O)ccc1C(=O)OC1CC2CCC1(C)C2(C)C` (centres unmarked) [ZL006-59, bornyl-2-acetyloxy-4-(2-hydroxy-3-chloro-5-fluorobenzyl) aminobenzoate] is higher in “Inhibition of LDH release (%)” value: 1.2% for the first, 61.7% for the second.
